Laboratory results: patent US7939530B2, “Treatment of lymphoma using 10-propargyl-10-deazaaminopterin and gemcitabine” (Sloan-Kettering Institute for Cancer Research, priority 2004, dated 2011)
Where “and” joins values, the source holds several entries; their conditions need not be identical. Identical values can stand only once.

What was measured:
[1] = test system: human SKI-DLCL-1 (de novo diffuse large B cell) non-Hodgkin's lymphoma xenografts; experiment: Subcutaneous lymphoma xenograft treatment; type: in vivo; details: MTX 40 mg/kg
Text: (§1) In order to study the effects of PDX on lymphoma growth in vivo, subcutaneous transplantation models in NOD/SCID mice were generated using three established human lymphoma cell line representative of aggressive transformed FL (RL) and de novo extranodal DLBCL (HT; SKI-DLCL-1) histologies. Six to eight week old non-obsese diabetic severe combined immunodeficient (NOD/SCID) mice (Jackson Laboratories, Bar Harbor, Me.) were sub-lethally irradiated with […] from a gamma source and inoculated with 10×10^6 lymphoma cells via a subcutaneous route. When tumor volumes approached 100 mm^3, mice were divided into three groups, averaging 3-8 mice per group. Mice were treated with normal saline or the maximum tolerated dose (MTD) of MTX (40 mg/kg) or PDX (60 mg/kg) via an intraperitoneal route twice weekly for two weeks (four total doses). […] (Sirotnak, et al., Cancer Chemother. Pharmacol. 12: 26-30 (1984); Sirotnak et al., Cancer Chemother. Pharmacol. 42: 313-318 (1998).
(§2) Engraftment rates in this experiment ranged from 80 to 90%. Palpable tumors formed under the skin approximately 7-10 days after inoculation and were readily measurable with calipers. Mice with subcutaneous lymphoma growths survived an average of 40-50 days after inoculation.

[2] = test system: human RL (transformed follicular) non-Hodgkin's lymphoma xenografts; experiment: Subcutaneous lymphoma xenograft treatment; type: in vivo; details: MTX 40 mg/kg
Text: as §1, §2

[3] = test system: SKI-DLCL-1 lymphoma cells; experiment: Trypan Blue Exclusion cytotoxicity assay of single agents and combinations; type: cell-based, human; details: MTX 10 nM, PDX 1 nM, Ara-C 40 nM, Gem 10 nM, control = 1
Text: As set forth in greater detail in the examples herein, combination therapy using PDX and gemcitabine has been tested in vitro and in in vivo model systems for efficacy against lymphoma. Table 1 sets forth data obtained in a cytotoxicity assay (Example 2) using SKI-DLCL-1 lymphoma cells. SKI-DLCL-1 is a diffuse large b cell lymphoma (DLBCL) cell line that is particularly resistant to PDX.
In Table 1, the additive effect is in each case the % of control for the single agents multiplied together. The expected additive effect for PDX+Gem is better than for MTX and ara-C, because the agents are individually better. What is observed for both MTX/AraC combinations and PDX/Gem combinations is that the actual result is better than the predicted additive result. The extent of this synergism is quantified in Table 1 as (actual-additive)/additive so that the amount of reduction that occurs through the use of the combination is expressed as a percentage of the expected additive benefit.
To evaluate cytotoxicity of combination of PDX and GEM, a Trypan Blue Exclusion Assay was performed by aliquoting 5×10^5 SKI-DLBCL cells into each well of a 24 well plate with a final volume of 1 milliliter. Each drug was added in duplicate to the plate wells as follows: alone (MTX 10 nM, PDX 1 nM, Ara-C 40 nM, or Gem 10 nM), PDX+Gem or MTX+Ara-C for 48 h (hours). For the scheduled administration of drug, PDX or MTX alone were dispensed in additional duplicate wells. After 24 hours Gem and Ara-C were added to these wells, respectively, and incubated for 48 hours. At the end of incubation, 20 l of each cell culture was added to 20 l of trypan blue, after which […] was added to a hemocytometer (Hausser Scientific, Horsham, Pa.), where viable cells were counted based upon the presence (dead cells) or exclusion (live cells) of dye.

[4] = test system: Hs445 (Hodgkin's disease) cell line; experiment: Growth inhibition in vitro (XTT or Alamar blue); type: cell-based, human; details: 5 day continuous drug exposure
Procedure: (§3) A PDX preparation prepared in accordance with Example 1 and an MTX preparation were tested for cytotoxicity against a panel of five human lymphoma cell lines. Experiments were performed as described previously. (Sirotnak et al., Cancer Chemother. Pharmacol. 12: 18-25 (1984). In brief, 2.5 to 5×10^3 cells were plated per well in 96-well flat bottom plates. Drug was added in a 0.9% NaCl solution (pH 7.0) over a range of concentrations, and cells were continuously exposed to drug for 5 days. Colorimetric dye (XTT or Alamar blue) was added for an addition period of time (XTT dye, 6 hours, Alamar blue, 24 hours). Each plate was then read on an automated plate reader at 590 nm. The percentage of inhibition was calculated as growth of cells exposed to drug divided by growth of controls (cells incubated with media only). IC50 values were determined as the drug concentrations at which cell growth was inhibited 50% as compared to controls. Experiments were repeated as lest three times. Experiments were also conducted with continuous drug exposures lasting for 3 and 4 days with results similar to the 5 day results.

[5] = test system: RL (Transformed follicular) cell line; experiment: Growth inhibition in vitro (XTT or Alamar blue); type: cell-based, human; details: 5 day continuous drug exposure
Procedure: as §3

[6] = test system: HT (Diffuse large B cell) cell line; experiment: Growth inhibition in vitro (XTT or Alamar blue); type: cell-based, human; details: 5 day continuous drug exposure
Procedure: as §3

[7] = test system: Raji (Burkitt's) cell line; experiment: Growth inhibition in vitro (XTT or Alamar blue); type: cell-based, human; details: 5 day continuous drug exposure
Procedure: as §3

SKI-DLCL-1 cells = experiment: Induction of apoptosis (YO-PRO-1/propidium iodide flow cytometry); type: cell-based, human; details: all drugs 1 nM, total exposure 72 hours, sequential: first drug 24 hours prior to second
Procedure: Ara-C, PDX and Gem in combined and scheduled exposures. In each case, the total exposure time was 72 hours. In sequential treatments, the first drug was administered 24 hours prior to the second drug.
To assess apoptosis occurring as a result of combination therapies, apoptosis was assessed using two well standardized techniques. In the first (YO-PRO), cell membrane permeability was determined by measuring fluorescence of treated and control cells. 2×10^7 SKI-DLBCL cells were treated with either MTX, Ara-C, Gem or PDX alone or combinations of drug given together or scheduled. All drugs were assayed at equimolar concentrations (i.e. 1 nM). The incubation conditions were modeled after the in vitro cytotoxicity experiments. Single agent drugs or combinations of all drugs studied without schedule considerations were incubated for 72 hours, while drugs that were studied in some schedule were introduced in a 24+48 incubation scheme (i.e. drug B added 24 hours following drug A, then incubated for an additional 48 hours for a total incubation time of 72 hours). Cells were then collected, washed twice and re-suspended at a concentration of 1×10^6/mL in DPBS. Membrane permeability was detected via the differential cellular permeability of the fluorescent dyes YO-PRO®-1 and propidium iodide by flow cytometry, as per the manufacturer's guidelines (Vybrant apoptosis kit #4, Molecular Probes, Eugene, Oreg.). In addition to monitoring apoptosis, cell cycle kinetic analyses were also performed on all treated cells based the propidium iodide binding. Apoptotic cells were noted to be permeable to the green fluorescent dye YO-PRO®-1 (em 530, FL-1), and impermeable to the red fluorescent dye propidium iodide (em 575, FL-3). Typically, […] cells allow the entrance of both dyes, whereas living cells are impermeable to both dyes.

[8] = PDX 60 mg/kg ip twice weekly for two weeks

**Q.** With `C#CCC(Cc1cnc2nc(N)nc(N)c2n1)c1ccc(C(=O)N[C@@H](CCC(=O)O)C(=O)O)cc1` (stereo partly shown) [PDX, 10-Propargyl-10-deazaminopterin] as the molecule, how does the “Complete Regression (no/total)” value ([1]; PDX 60 mg/kg) read?
**A.** 3 of 10 and 3/10

**Q.** What about the “tumor regressions / complete remissions (% of mice)” value ([1]; PDX 60 mg/kg) of the same molecule?
**A.** 30%

**Q.** And the “Avg Tumor Diameter (mm ± SE)” value [1, 8]?
**A.** 3.5 ± 0.7 mm

**Q.** And the “Avg change in Tumor Volume (mm^3 ± SE)” value [1, 8]?
**A.** −81 ± 16 mm^3

**Q.** What about the “Weight Change (%)” value [1, 8] of the same molecule?
**A.** −1.2%

**Q.** And the “Complete Regression (no/total)” value ([2]; PDX 60 mg/kg)?
**A.** 5 of 9 and 5/9

**Q.** What about the “tumor regressions (% of mice)” value ([2]; PDX 60 mg/kg) of the same molecule?
**A.** 57%

**Q.** And the “Avg Tumor Diameter (mm ± SE)” value [2, 8]?
**A.** 2.7 ± 1.1 mm

**Q.** And the “Avg change in Tumor Volume (mm^3 ± SE)” value [2, 8]?
**A.** −46 ± 34 mm^3

**Q.** And the “Weight Change (%)” value [2, 8]?
**A.** −11.1%

**Q.** What about the fraction of control [3] of the same molecule?
**A.** 0.84

**Q.** And the IC50 [4]?
**A.** 1.6 ± 0.8 nM

**Q.** And the IC50 [5]?
**A.** 23 ± 2 nM

**Q.** What about the IC50 [6] of the same molecule?
**A.** 2 ± 0.4 nM

**Q.** And the IC50 [7]?
**A.** 2 ± 0.3 nM

**Q.** And the “% change in apoptosis” value (SKI-DLCL-1 cells)?
**A.** 28.21%
